# Where a name gives a salt, the structure may show the parent alone. Non-standard residues stand in square brackets, D forms with d. Residues, ends and D or L forms follow the SMILES beside them. pGlu = O=C1CC[C@@H](C(=O)O)N1
# Assay: in vitro
# Settings: rat, gh3-tre-luc cells, AC50 (uM) modified / 1000
row,Structure (SMILES),CC50 at 24 h [µM]
1,Cc1oc(-c2ccccc2)nc1CCOc1cccc2c1ccn2CCC(=O)O [PD-0333941],18.9
2,CC(C)Oc1ccccc1O [2-Isopropoxyphenol],> 90
3,C#CCOC(=O)[C@@H](C)Oc1ccc(Oc2ncc(Cl)cc2F)cc1 [Clodinafop-propargyl],> 90
4,C=C(C)C(=O)OCC [Ethyl methacrylate],> 100
5,CC1=C(C/C=C(\C)CCC[C@H](C)CCC[C@H](C)CCCC(C)C)C(=O)c2ccccc2C1=O [Phytonadione],> 50
6,COc1ccc(CCNC[C@H](O)c2ccc(O)cc2)cc1OC [Denopamine],> 50
7,CC1(C)C(C=C(Cl)Cl)[C@@H]1C(=O)O[C@@H](C#N)c1ccc(F)c(Oc2ccccc2)c1 (some centres unmarked) [Cyfluthrin],> 90
8,C[C@]12C=CC(=O)N[C@@H]1CC[C@@H]1[C@@H]2CC[C@]2(C)[C@@H](C(=O)Nc3cc(C(F)(F)F)ccc3C(F)(F)F)CC[C@@H]12 [Dutasteride],> 50
9,CCC(=O)/C=C/C1C(C)=CCCC1(C)C (centres unmarked) [Methylionone],> 90
10,NC[C@@H]1O[C@H](O[C@H]2[C@@H](O)[C@H](O[C@@H]3[C@@H](O)[C@H](N)C[C@H](N)[C@H]3O[C@H]3O[C@H](CO)[C@@H](O)[C@H](O)[C@H]3N)O[C@@H]2CO)[C@H](N)[C@@H](O)[C@@H]1O [Paromomycin sulfate],> 50
11,CCCCOC(=O)CO [Butyl hydroxyacetate],> 90
12,CCCCCCCCSCC [Ethyl octyl sulfide],> 90
13,c1ccc2c(c1)Oc1ccccc1S2 [Phenoxathiin],> 90
14,CCOC(=O)[C@H](CCc1ccccc1)N[C@@H](C)C(=O)N1Cc2ccccc2C[C@H]1C(=O)O [Quinapril hydrochloride],> 90
15,"CCOc1ccccc1OCC [1,2-Diethoxybenzene]",> 90
16,CN1CCN2c3ccccc3Cc3ccccc3C2C1 (centres unmarked) [Mianserin],20.6
17,O=S(=O)(O)CCN1CCN(CCO)CC1 [Sodium 2-[4-(2-hydroxyethyl)piperazin-1-yl]ethanesulfonate],> 90
18,CC(CO)Oc1ccccc1 (centres unmarked) [2-Phenoxy-1-propanol],> 90
19,CCCCOC(=O)[C@H](C)O [Butyl (2S)-2-hydroxypropanoate],> 90
20,"CC(C)c1cccc(C(C)C)c1 [1,3-Diisopropylbenzene]",> 90
21,N[C@@H](CSSC[C@H](N)C(=O)O)C(=O)O [L-Cystine],> 50
22,CCCCOC(=O)c1ccc(O)cc1 [Butylparaben],> 50
23,CC(C)C[P+](C)(CC(C)C)CC(C)C [Triisobutylmethylphosphonium tosylate],> 90

row,Structure (SMILES),CC50 at 24 h [µM]
1,CCCCC(CC)CO (centres unmarked) [2-Ethyl-1-hexanol],> 90
2,O=C(CCCN1CCC(O)(c2cccc(C(F)(F)F)c2)CC1)c1ccc(F)cc1 [Trifluperidol hydrochloride],24
3,COc1ccc(Cc2cnc(N)nc2N)cc1OC [Diaveridine],> 50
4,CCOC(=O)[C@@H](C)Oc1ccc(Oc2nc3ccc(Cl)cc3o2)cc1 [Fenoxaprop-P-ethyl],> 90
5,Cc1cc(=O)oc2cc(N(C)C)ccc12 [7-(Dimethylamino)-4-methylcoumarin],> 90
6,CS(=O)(=O)OCCCCOS(C)(=O)=O [Busulfan],> 90
7,C=CC(=O)OCC(C)OCC(C)OCC(C)OC(=O)C=C (centres unmarked) [Tripropylene glycol diacrylate],36.2
8,O=C(O)Cc1cccc(-c2cc(CCCCCCc3ccc(O[C@H]4O[C@H](CO)[C@@H](O)[C@H](O)[C@@H]4O)c(-c4cccc(CC(=O)O)c4)c3)ccc2O[C@H]2O[C@H](CO)[C@@H](O)[C@H](O)[C@@H]2O)c1 [Bimosiamose],> 50
9,"CC(C)NC(=O)NC(C)C [1,3-Dipropan-2-ylurea]",> 90
10,O=C(OOC(=O)c1ccccc1)c1ccccc1 [Benzoyl peroxide],> 50
11,"O=S1(=O)CCCO1 [1,3-Propane sultone]",> 90
12,CCCCCCCCCCCC[N+](C)(C)CCCS(=O)(=O)O,55.3
13,CC(=O)Nc1ccc(OCC(O)CNC(C)C)cc1 (centres unmarked) [Practolol],> 50
14,C[C@@H](CN1CC(=O)NC(=O)C1)N1CC(=O)NC(=O)C1 [Dexrazone],> 50
15,Cc1ccc(O)c(O)c1 [4-Methylcatechol],38.5
16,"CCc1cc(OC)c(C[C@H](C)N)cc1OC [(+)-2,5-Dimethoxy-4-ethylamphetamine hydrochloride]",35.7
17,CCCCCCCCCCC[C@@H](C[C@@H]1OC(=O)[C@H]1CCCCCC)OC(=O)[C@H](CC(C)C)NC=O [Orlistat],> 50
18,C=CCCC(=O)O [4-Pentenoic acid],> 90
19,CC(C)N(CCC(C(N)=O)(c1ccccc1)c1ccccn1)C(C)C (centres unmarked) [Disopyramide],> 50
20,CC(O)CN(C)C (centres unmarked) [Dimepranol],> 50
21,Nc1ccc(Oc2ccc(Cl)cc2)cc1 [4-Chloro-4'-aminodiphenyl ether],> 90
22,NNc1nc(-c2ccc(N)cc2)cs1 [2-Hydrazino-4-(4-aminophenyl) thiazole],74.8
23,"O=C(c1ccccc1)c1ccc(O)c(O)c1O [2,3,4-Trihydroxbenzophenone]",75

row,Structure (SMILES),CC50 at 24 h [µM]
1,CCCCCCCCCCCCOS(=O)(=O)O [Sodium dodecyl sulfate],> 90
2,CCC(=O)NS(=O)(=O)c1ccc(-c2c(-c3ccccc3)noc2C)cc1 [Parecoxib sodium],> 50
3,"CCCCCCCC/C=C\CCCCCCCC(=O)OC[C@@H](O)[C@H]1OC[C@H](O)[C@H]1O [Sorbitan, mono-(9Z)-9-octadecenoate]",> 50
4,C=C1CC[C@@]2(O)[C@H]3Cc4ccc(O)c5c4[C@@]2(CCN3CC2CC2)[C@H]1O5 [Nalmefene],> 50
5,Nc1cnn([C@@H]2O[C@H](CO)[C@@H](O)[C@H]2O)c(=O)n1 [6-Azacytidine],> 90
6,CC[C@@]1(O)C(=O)OCc2c1cc1n(c2=O)Cc2cc3c(CN(C)C)c(O)ccc3nc2-1 [Topotecan hydrochloride],> 50
7,"CC(=O)CC(=O)Nc1ccc2[nH]c(=O)[nH]c2c1 [3-Oxo-N-(2-oxo-2,3-dihydro-1H-benzimidazol-5-yl)butanamide]",> 90
8,O=C(Oc1ccc(Br)cc1)N1CCN2CCC1CC2 [SSR180711],44
9,CO[C@H]1/C=C/O[C@@]2(C)Oc3c(C)c(O)c4c(O)c(c(/C=N/N5CCN(C6CCCC6)CC5)c(O)c4c3C2=O)NC(=O)/C(C)=C\C=C\[C@H](C)[C@H](O)[C@@H](C)[C@@H](O)[C@@H](C)[C@H](OC(C)=O)[C@@H]1C [Rifapentine],22.8
10,O=S(=O)(O)CCO [Sodium 2-hydroxyethanesulfonate],> 90
11,CCCCCC(C)N (centres unmarked) [2-Aminoheptane sulfate],> 50
12,"CC/C=C\CC/C=C/C=O [trans-2,cis-6-Nonadienal]",> 90
13,CCN(CC)C(C)C(=O)c1ccccc1 (centres unmarked) [Diethylpropion hydrochloride],> 50
14,O=C(O)CF [Sodium fluoroacetate],> 90
15,"COc1cc(CC(C)N)cc(OC)c1OC (centres unmarked) [3,4,5-Trimethoxyamphetamine hydrochloride]",> 100
16,CCN(CC)CCNC(=O)c1ccc(NC(C)=O)cc1 [Acecainide hydrochloride],> 50
17,CCN(CC)C(=O)[C@]1(c2ccccc2)C[C@@H]1CN (racemic) [Milnacipran hydrochloride],> 50
18,O=Nc1ccc(O)cc1 [4-Nitrosophenol],> 90
19,Cc1cc(NC(=O)C2=C(O)c3ccccc3S(=O)(=O)N2C)no1 [Isoxicam],> 50
20,COc1ccc(C2C(=O)c3ccccc3C2=O)cc1 [Anisindione],> 50
21,COc1cccc(CCc2ccccc2OCC(CN(C)C)OC(=O)CCC(=O)O)c1 (centres unmarked) [Sarpogrelate hydrochloride],17.2

# Same assay, conditions: rat, gh3-tre-luc cells, AC50 (uM) modified / 1000, Tox21_110001=Tox21_111567; viability, 1 nM T3 present, 24 h
row,Structure (SMILES),CC50 at 24 h [µM]
1,CNC1=Nc2ccc(Cl)cc2C(c2ccccc2)=[N+]([O-])C1 [Chlordiazepoxide],> 50

# Same assay, conditions: rat, gh3-tre-luc cells, AC50 (uM) modified / 1000, Tox21_110001=Tox21_112815; viability, 1 nM T3 present, 24 h
row,Structure (SMILES),CC50 at 24 h [µM]
1,CC[C@H](C)[C@H](NC(=O)[C@H](Cc1ccccc1)NC(=O)[C@H](C)NC(=O)[C@H](CC(=O)O)NC(=O)[C@H](CCCCN)NC(=O)[C@H](CO)NC(=O)[C@@H]1CCCN1C(=O)[C@@H]1CCC(=O)N1)C(=O)NCC(=O)N[C@@H](CC(C)C)C(=O)N[C@@H](CCSC)C(N)=O [Eledoisin] ([pGlu]PSKDAFIGLM-NH2),> 50

# Same assay, conditions: rat, gh3-tre-luc cells, AC50 (uM) modified / 1000, Tox21_110001=Tox21_112859; viability, 1 nM T3 present, 24 h
row,Structure (SMILES),CC50 at 24 h [µM]
1,CC(CC(C#N)(c1ccccc1)c1ccccc1)N(C)C (centres unmarked) [Premethadone],21.6

# Same assay, conditions: rat, gh3-tre-luc cells, AC50 (uM) modified / 1000, Tox21_110001=Tox21_200365; viability, 1 nM T3 present, 24 h
row,Structure (SMILES),CC50 at 24 h [µM]
1,CC(C)[N+](=O)[O-] [2-Nitropropane],> 90

# Same assay, conditions: rat, gh3-tre-luc cells, AC50 (uM) modified / 1000, Tox21_110001=Tox21_200991; viability, 1 nM T3 present, 24 h
row,Structure (SMILES),CC50 at 24 h [µM]
1,N#C/C(N)=C(/N)C#N [Diaminomaleonitrile],> 90

# Same assay, conditions: rat, gh3-tre-luc cells, AC50 (uM) modified / 1000, Tox21_110001=Tox21_201140; viability, 1 nM T3 present, 24 h
row,Structure (SMILES),CC50 at 24 h [µM]
1,"ClCCCCl [1,3-Dichloropropane]",> 100

# Same assay, conditions: rat, gh3-tre-luc cells, AC50 (uM) modified / 1000, Tox21_110001=Tox21_201304; viability, 1 nM T3 present, 24 h
row,Structure (SMILES),CC50 at 24 h [µM]
1,CCCCCCCCCCCC#N [Dodecanenitrile],> 90

# Same assay, conditions: rat, gh3-tre-luc cells, AC50 (uM) modified / 1000, Tox21_110001=Tox21_201715; viability, 1 nM T3 present, 24 h
row,Structure (SMILES),CC50 at 24 h [µM]
1,CCCCCCCCCl [1-Chlorooctane],> 90

# Same assay, conditions: rat, gh3-tre-luc cells, AC50 (uM) modified / 1000, Tox21_110001=Tox21_201790; viability, 1 nM T3 present, 24 h
row,Structure (SMILES),CC50 at 24 h [µM]
1,CCCCCCCCCCCCCl [1-Chlorododecane],> 90

# Same assay, conditions: rat, gh3-tre-luc cells, AC50 (uM) modified / 1000, Tox21_110001=Tox21_301748; viability, 1 nM T3 present, 24 h
row,Structure (SMILES),CC50 at 24 h [µM]
1,CN(C)C(=O)Nc1cccc(OC(=O)NC(C)(C)C)c1 [Karbutilate],> 90
